Experimental data taken from paper PMC6737615, “Complete oxidation of hydroxymethylfurfural to furandicarboxylic acid by aryl-alcohol oxidase” (Biotechnology for Biofuels, 2019).

Legend:
[1] = molecular target: T1, aryl-alcohol oxidase (AAO) (Pleurotus eryngii, UniProt O94219); experiment: HPLC and 1H-NMR of oxidation by purified AAO; assay type: biochemical; parameters: mature AAO cDNA (GenBank AF064069) expressed in E. coli
T1 sequence (O94219 28-593): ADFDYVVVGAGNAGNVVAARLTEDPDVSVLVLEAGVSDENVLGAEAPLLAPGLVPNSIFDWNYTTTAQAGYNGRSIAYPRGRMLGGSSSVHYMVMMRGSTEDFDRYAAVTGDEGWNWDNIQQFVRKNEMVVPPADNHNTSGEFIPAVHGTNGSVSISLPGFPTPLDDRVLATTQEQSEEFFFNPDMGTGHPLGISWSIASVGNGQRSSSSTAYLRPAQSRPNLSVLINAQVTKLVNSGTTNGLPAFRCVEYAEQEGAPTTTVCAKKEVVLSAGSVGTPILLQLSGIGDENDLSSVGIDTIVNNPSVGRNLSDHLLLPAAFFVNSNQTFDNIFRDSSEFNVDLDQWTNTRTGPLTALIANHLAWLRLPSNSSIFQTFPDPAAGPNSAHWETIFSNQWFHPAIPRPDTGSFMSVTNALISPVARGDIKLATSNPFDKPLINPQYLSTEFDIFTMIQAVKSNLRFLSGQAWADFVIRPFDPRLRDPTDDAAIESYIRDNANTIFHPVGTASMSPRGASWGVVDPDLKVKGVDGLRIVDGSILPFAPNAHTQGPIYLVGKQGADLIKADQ

[2] = molecular target: aryl-alcohol oxidase (AAO) (Pleurotus eryngii, UniProt O94219, F528H); experiment: conversion to FDCA by purified variant with catalase, HPLC; assay type: biochemical
Excerpt: (§1) conversion to FDCA by purified variant with catalase, HPLC on aryl-alcohol oxidase (AAO) | production of FDCA from HMF by native AAO, and its F501H, F397Y, and I500M/F501 W variants

[3] = molecular target: aryl-alcohol oxidase (AAO) (Pleurotus eryngii, UniProt O94219, I527M/F528W); experiment: as above; assay type: biochemical
Excerpt: as §1

[4] = molecular target: aryl-alcohol oxidase (AAO) (Pleurotus eryngii, UniProt O94219, F424Y); experiment: as above; assay type: biochemical
Excerpt: as §1

[5] = molecular target: T1, aryl-alcohol oxidase (AAO); experiment: biochemical
[6] = molecular target: T1, aryl-alcohol oxidase (AAO); experiment: turnover at saturating aldehyde, spectrophotometric acid formation; assay type: biochemical; parameters: mature AAO cDNA (GenBank AF064069) expressed in E. coli
Experimental: turnover at saturating aldehyde, spectrophotometric acid formation on aryl-alcohol oxidase (AAO) | Turnovers for aldehyde oxidation were calculated at saturating concentration of p-anisaldehyde

## O=Cc1ccc(CO)o1 [HMF]
[1]
  HPLC and 1H-NMR of oxidation by purified AAO: 2.54 h⁻¹
[2]
  % conversion: 97.9 % conversion
[3]
  % conversion: 52.8 % conversion
[4]
  % conversion: 75.7 % conversion

## OO [H2O2]
[5]
  IC50: ~158 µM

## COc1ccc(C=O)cc1 [p-anisaldehyde]
[6]
  p-Anisaldehyde / kcat: 7.3 min⁻¹
